{"source": "patent US7960420B2", "about": "“Diazonamide analogs with improved solubility” (Joyant Pharmaceuticals, Inc, priority 2007, dated 2011)", "key": {"[1]": {"test_system": "HCC461 human NSCLC xenograft", "experiment": "HCC461 human NSCLC xenograft tumor model in mice", "assay_type": "in vivo", "settings": "FIG. 1; 20 mg/kg per dose; injections at days 7, 9, 11, 14, 16 and 18 post tumor cell injection", "protocol": "Compound 22 (prepared according to Example 22) and Compound 28 (prepared according to Example 28) were tested in a HCC461 human NSCLC xenograft tumor model in mice.\nPreparation of Tumor Cells • 1. Hcc461 cells were cultured in complete RPMI medium and excluded any contamination • 2. When cells are 70-80% confluent, medium was removed and cells were washed with serum free media, trypsinized, harvested and washed with serum free media for three times by centrifuge. After final washing, cells were counted and mixed with matrigel at 1:1 ration in volume. Cells were suspended in a volume that 200 PI contains required number of cells per injection.\nPreparation of Mice • 1. Mice should be 4-6 weeks old. • 2. Allow 3-5 days acclimatization period after mice have arrived.\nPreparation of the Injection • 1. Clean and sterilize the inoculation area of the mice with iodine solutions and ethanol. • 2. Take cells with 1-cc syringe. • 3. Inject cells (1×10^7) with 27 gauge needles subcutaneously (s.c.) into the lower flank of the mice. • 4. Therapy was started after 1 week when the tumors have reached an average volume of ˜250 mm^3. • 5. Tumor diameters are measured with digital calipers, and the tumor volume in mm^3 is calculated by the formula: Volume=(width)^2×length/2\nTreatment • 1. Compound 22 and Compound 28 were dissolved in water at concentration of 5 mg/ml and diluted to working solution with D5W before injection. Compound 16 was administered at 20 mg/kg in a mixture of 5% ethanol-5% cremaphor-90% saline. • 2. Each tumor bearing mouse was injected with Compound 22 at 20 mg/kg, Compound 28 at 20 mg/kg or at 10 mg/kg, or Compound 16 at 20 mg/kg via tail vein and continually injected with the same method for a total of 6 times, on days 7, 9, 11, 14, 16, and 18 post tumor-cell injection."}, "[2]": {"experiment": "aqueous solubility in de-ionized water", "assay_type": "physicochemical", "settings": "for solubility: thermodynamic from solid", "protocol": "Unless otherwise indicated, the solubility measurements described herein are determined by dissolving the test compound in de-ionized (DI) water at 25° C. […] In particular, the compounds provided by Examples 22, 23, 28, 30, 31, 37 and 38 are water soluble."}, "[3]": {"experiment": "stability of aqueous solution at room temperature", "assay_type": "physicochemical", "protocol": "To the combined filtration above was added a stock solution of NaOH in water (14.4 mg/mL, 1 mL, 0.360 mmol). The resulting solution was concentrated to remove most of MeOH at room temperature. Then the residue was diluted with DI water (100 mL). This solution was filtered through a syringe filter (0.45 um) to remove tiny particles. The filtrate was lyophilized to afford the desired compound monosodium salt, 31 (285 mg, 97% yield for two steps)."}, "HCT-116 cells": {"test_system": "HCT-116 cells", "settings": "a human colorectal carcinoma line; cited from earlier work"}, "microtubule assembly": {"test_system": "microtubule assembly", "settings": "Cruz-Monserrate et al., Mol. Pharmacol., 2003; cited from earlier work"}, "[4]": {"settings": "de-ionized (DI) water at 25° C., read-out: water solubility"}}, "note": "Where two headings read alike, the source gives them in different places.", "data": [{"smiles": "CC(C)C1NC(=O)[C@@H](NC(=O)[C@@H](O)C(C)C)Cc2ccc3c(c2)C24C5=C(N=C1O5)c1ncc(o1)-c1c[nH]c5cccc(c15)-c1cccc2c1N[C@H]4O3", "note": "(stereo partly drawn) [Compound 16]", "values": [{"measurement": "tumor free animals", "setting": "[1]", "result": "no tumor free animals"}]}, {"smiles": "CC(C)[C@@H]1NC(=O)[C@@H](NC(=O)[C@@H](OP(=O)(O)O)C(C)C)Cc2ccc3c(c2)[C@]24C5=C(N=C1O5)c1ncc(o1)-c1c[nH]c5cccc(c15)-c1cccc2c1NC4O3", "note": "(stereo partly drawn) [Compound 22]", "values": [{"measurement": "solubility", "setting": "[2]; [4]", "result": "> 1000", "unit": "µg/mL"}, {"measurement": "tumor free animals", "setting": "[1]", "result": "no tumor free animals"}, {"measurement": "weight loss in the treated group", "setting": "[1]", "result": "No weight loss"}]}, {"smiles": "CC(C)[C@@H]1NC(=O)[C@@H](NC(=O)[C@@H](OP(=O)([O-])O)C(C)C)Cc2ccc3c(c2)[C@]24C5=C(N=C1O5)c1ncc(o1)-c1c[nH]c5cccc(c15)-c1cccc2c1NC4O3.[Na+]", "note": "(stereo partly drawn) [Compound 23]", "values": [{"measurement": "amount shown to dissolve in 1 mL of de-ionized water", "setting": "[2]; 1 mL of de-ionized water", "result": 5, "unit": "mg"}, {"measurement": "solubility", "setting": "[2]; [4]", "result": "> 1000", "unit": "µg/mL"}]}, {"smiles": "CC(C)[C@H](O)C(=O)N[C@H]1Cc2ccc3c(c2)[C@]24C5=C(N=C(O5)[C@H](C(C)C)NC1=O)c1ncc(o1)-c1cn(P(=O)(O)O)c5cccc(c15)-c1cccc2c1NC4O3", "note": "(stereo partly drawn) [Compound 28]", "values": [{"measurement": "solubility", "setting": "[2]; [4]", "result": "> 1000", "unit": "µg/mL"}]}, {"smiles": "CCC(O)(CC)C(=O)N[C@H]1Cc2ccc3c(c2)[C@]24C5=C(N=C(O5)[C@H](C(C)C)NC1=O)c1ncc(o1)-c1cn(P(=O)(O)O)c5cccc(c15)-c1cccc2c1NC4O3", "note": "(stereo partly drawn) [Compound 30]", "values": [{"measurement": "solubility", "setting": "[2]; [4]", "result": "> 1000", "unit": "µg/mL"}]}, {"smiles": "CCC(O)(CC)C(=O)N[C@H]1Cc2ccc3c(c2)[C@]24C5=C(N=C(O5)[C@H](C(C)C)NC1=O)c1ncc(o1)-c1cn(P(=O)([O-])O)c5cccc(c15)-c1cccc2c1NC4O3.[Na+]", "note": "(stereo partly drawn) [Compound 31]", "values": [{"measurement": "solubility", "setting": "[2]; [4]", "result": "> 1000", "unit": "µg/mL"}, {"measurement": "solubility", "setting": "[2]; water, 25 °C, water, read-out: solubility in water", "result": 20000, "unit": "µg/mL"}, {"measurement": "time for which the aqueous solution is stable", "setting": "[3]", "result": "more than 48 hours"}]}, {"smiles": "CCC(O)(CC)C(=O)N[C@H]1Cc2ccc3c(c2)C24C5=C(N=C(O5)[C@H](C(C)C)NC1=O)c1ncc(o1)-c1c[nH]c5c(OP(=O)(O)O)ccc(c15)-c1cccc2c1NC4O3", "note": "(stereo partly drawn) [Compound 37]", "values": [{"measurement": "solubility", "setting": "[2]; [4]", "result": "> 1000", "unit": "µg/mL"}]}, {"smiles": "CCC(O)(CC)C(=O)N[C@H]1Cc2ccc3c(c2)C24C5=C(N=C(O5)[C@H](C(C)C)NC1=O)c1ncc(o1)-c1c[nH]c5c(OP(=O)([O-])[O-])ccc(c15)-c1cccc2c1NC4O3.[Na+].[Na+]", "note": "(stereo partly drawn) [Compound 38]", "values": [{"measurement": "solubility", "setting": "[2]; [4]", "result": "> 1000", "unit": "µg/mL"}]}, {"smiles": "CC(C)[C@H](O)C(=O)NC1Cc2ccc3c(c2)[C@]24C5=C(N=C(O5)[C@H](C(C)C)NC1=O)c1nc(Cl)c(o1)-c1c(Cl)[nH]c5cccc(c15)-c1cccc2c1NC4O3", "note": "(stereo partly drawn) [Diazonamide A]", "values": [{"measurement": "GI50 values (50% growth inhibitory concentration)", "setting": "HCT-116 cells", "result": "less than 15 ng/ml"}, {"measurement": "inhibition of microtubule assembly", "setting": "microtubule assembly", "result": "inhibit microtubule assembly"}]}]}
